The record followed here is patent US11254663B2 (BRISTOL-MYERS SQUIBB COMPANY, priority 2019, dated 2022).

Each structure is given as a SMILES string.

In this assay the target is FXR (Homo sapiens (Human), UniProt Q96RI1). Put plainly: transient human FXR/Gal4-luciferase reporter assay. Type of assay: cell-based. As to conditions: Gal4-hFXR fusion construct, HEK293 reporter cells; response relative to 8 μM GW-4064. In a few lines: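 Compound exposure ran overnight at 37 °C and activity was measured as luminescence with Steady-Glo reagent. The cells were a HEK293 line stably expressing firefly luciferase under five Gal4 response elements. They were transiently transfected, one night beforehand, with a plasmid encoding Gal4 DNA-binding domain fused to the human FXR ligand-binding domain.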
Sequence of FXR (Q96RI1 262-486): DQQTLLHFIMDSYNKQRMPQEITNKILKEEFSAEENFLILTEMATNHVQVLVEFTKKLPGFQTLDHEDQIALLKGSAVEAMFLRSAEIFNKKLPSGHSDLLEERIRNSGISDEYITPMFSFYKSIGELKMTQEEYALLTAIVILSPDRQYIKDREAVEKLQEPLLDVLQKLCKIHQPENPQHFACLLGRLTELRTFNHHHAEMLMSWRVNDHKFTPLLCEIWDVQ
In general terms: In a reporter assay the amount or activity of a reporter protein is the signal.
The EC50 is the concentration giving half of the maximal effect. Read a low EC50 as a more potent agent. With `CC(C)(C#N)Oc1ccc(-c2cc(N(CC34CCC(c5noc(C(C)(C)F)n5)(CC3)CC4)C(=O)[C@H]3C[C@](O)(C(F)(F)F)C3)ccc2F)cc1` [Example 582, (cis)-N-(4′-((2-cyanopropan-2-yl)oxy)-6-fluoro-[1,1′-biphenyl]-3-yl)-N-((4-(5-(2-fluoropropan-2-yl)-1,2,4-oxadiazol-3-yl)bicyclo[2.2.2]octan-1-yl)methyl)-3-hydroxy-3-(trifluoromethyl)cyclobutane-1-carboxamide], the EC50 was 48 nM.
In turn, `CC(C)(C#N)Oc1ccc(-c2cccc(N(CC34CCC(c5noc(C6(F)CC6)n5)(CC3)CC4)C(=O)C3CC(O)(C(F)(F)F)C3)c2)cc1` (stereo not drawn) [Example 583, (cis)-N-(4′-((2-cyanopropan-2-yl)oxy)-[1,1′-biphenyl]-3-yl)-N-((4-(5-(1-fluorocyclopropyl)-1,2,4-oxadiazol-3-yl)bicyclo[2.2.2]octan-1-yl)methyl)-3-hydroxy-3-(trifluoromethyl)cyclobutane-1-carboxamide] returned an EC50 of 49 nM.
Molecule `CC(C)Oc1ccc(-c2cccc(N(CC34CCC(c5noc(C(C)(C)F)n5)(CC3)CC4)C(=O)OC(C)(C)C(F)(F)F)c2)cc1` [Example 584, 1,1,1-trifluoro-2-methylpropan-2-yl ((4-(5-(2-fluoropropan-2-yl)-1,2,4-oxadiazol-3-yl)bicyclo[2.2.2]octan-1-yl)methyl)(4′-isopropoxy-[1,1′-biphenyl]-3-yl)carbamate] came in with an EC50 of 31 nM.
The molecule `CC(C)(O)c1ccc(-c2cccc(N(CC34CCC(c5noc(C(C)(F)F)n5)(CC3)CC4)C(=O)C34CC(C#N)(C3)C4)c2)cc1` [Example 585, 3-cyano-N-((4-(5-(1,1-difluoroethyl)-1,2,4-oxadiazol-3-yl)bicyclo[2.2.2]octan-1-yl)methyl)-N-(4′-(2-hydroxypropan-2-yl)-[1,1′-biphenyl]-3-yl)bicyclo[1.1.1]pentane-1-carboxamide] yielded an EC50 of 18 nM.
As for `CC(C)Oc1ccc(-c2cc(N(CC34CCC(c5noc(C6(F)CC6)n5)(CC3)CC4)C(=O)NC(C)(C)C)ccc2F)cc1` [Example 586, 3-(tert-butyl)-1-(6-fluoro-4′-isopropoxy-[1,1′-biphenyl]-3-yl)-1-((4-(5-(1-fluorocyclopropyl)-1,2,4-oxadiazol-3-yl)bicyclo[2.2.2]octan-1-yl)methyl)urea], the EC50 is 36 nM.
With `CC(C)(F)c1nc(C23CCC(CN(c4cccc(C5=CCC(C(C)(C)O)CC5)c4)C(=O)[C@H]4C[C@](O)(C(F)(F)F)C4)(CC2)CC3)no1` (stereo partly drawn) [Example 587, (cis)-N-((4-(5-(2-fluoropropan-2-yl)-1,2,4-oxadiazol-3-yl)bicyclo[2.2.2]octan-1-yl)methyl)-3-hydroxy-N-(4′-(2-hydroxypropan-2-yl)-2′,3′,4′,5′-tetrahydro-[1,1′-biphenyl]-3-yl)-3-(trifluoromethyl)cyclobutane-1-carboxamide] the figure was 42 nM.
`CC(C)(F)c1nc(C23CCC(CN(c4cccc(C5=CCOCC5)c4)C(=O)[C@H]4C[C@](O)(C(F)(F)F)C4)(CC2)CC3)no1` [Example 588, (cis)-N-(3-(3,6-dihydro-2H-pyran-4-yl)phenyl)-N-((4-(5-(2-fluoropropan-2-yl)-1,2,4-oxadiazol-3-yl)bicyclo[2.2.2]octan-1-yl)methyl)-3-hydroxy-3-(trifluoromethyl) cyclobutane-1-carboxamide]: a half-maximal effect (EC50) was put at 395 nM.
`CC(C)(F)c1nc(C23CCC(CN(c4cccc(C5=CC6(C5)CC(C(C)(C)O)C6)c4)C(=O)[C@H]4C[C@](O)(C(F)(F)F)C4)(CC2)CC3)no1` (stereo partly drawn) [Example 590, (cis)-N-((4-(5-(2-fluoropropan-2-yl)-1,2,4-oxadiazol-3-yl)bicyclo[2.2.2]octan-1-yl)methyl)-3-hydroxy-N-(3-(6-(2-hydroxypropan-2-yl)spiro[3.3]hept-1-en-2-yl)phenyl)-3-(trifluoromethyl)cyclobutane-1-carboxamide]: the EC50 worked out at 11 nM.
The molecule `CC(C)(F)c1nc(C23CCC(CN(C(=O)OC(C)(C)C(F)(F)F)c4cccc(-c5ccc(C6(C#N)CC6)c(F)c5)c4)(CC2)CC3)no1` [Example 591, 1,1,1-trifluoro-2-methylpropan-2-yl (4′-(1-cyanocyclopropyl)-3′-fluoro-[1,1′-biphenyl]-3-yl)((4-(5-(2-fluoropropan-2-yl)-1,2,4-oxadiazol-3-yl)bicyclo[2.2.2]octan-1-yl)methyl) carbamate] yielded an EC50 of 77 nM.
As to `CC(C)(F)c1nc(C23CCC(CN(c4cccc(N5CC6(COC6)C5)c4)C(=O)[C@H]4C[C@](O)(C(F)(F)F)C4)(CC2)CC3)no1` [Example 592, (cis)-N-(3-(2-oxa-6-azaspiro[3.3]heptan-6-yl)phenyl)-N-((4-(5-(2-fluoropropan-2-yl)-1,2,4-oxadiazol-3-yl)bicyclo[2.2.2]octan-1-yl)methyl)-3-hydroxy-3-(trifluoromethyl)cyclobutane-1-carboxamide], a half-maximal effect (EC50) was put at 970 nM.
With `CC(C)(O)c1ccc(-c2cccc(N(CC34CCC(c5noc(C(C)(C)F)n5)(CC3)CC4)C(=O)[C@H]3C[C@](O)(C(F)(F)F)C3)c2)nn1` [Example 593, (cis)-N-((4-(5-(2-fluoropropan-2-yl)-1,2,4-oxadiazol-3-yl)bicyclo[2.2.2]octan-1-yl)methyl)-3-hydroxy-N-(3-(6-(2-hydroxypropan-2-yl)pyridazin-3-yl)phenyl)-3-(trifluoromethyl)cyclobutane-1-carboxamide] the figure was 566 nM; with `CC(C)(F)c1nc(C23CCC(CN(C(=O)C45CC(F)(C4)C5)c4cccc(-c5cn[nH]c(=O)c5)c4)(CC2)CC3)no1` [Example 594, 3-fluoro-N-((4-(5-(2-fluoropropan-2-yl)-1,2,4-oxadiazol-3-yl)bicyclo[2.2.2]octan-1-yl)methyl)-N-(3-(6-oxo-1,6-dihydropyridazin-4-yl)phenyl)bicyclo[1.1.1]pentane-1-carboxamide], 1840 nM; with `CC(C)(O)c1ccc(-c2cccc(N(CC34CCC(c5noc(C(C)(C)F)n5)(CC3)CC4)C(=O)[C@H]3C[C@](O)(C(F)(F)F)C3)n2)cc1` [Example 595, (cis)-N-((4-(5-(2-fluoropropan-2-yl)-1,2,4-oxadiazol-3-yl)bicyclo[2.2.2]octan-1-yl)methyl)-3-hydroxy-N-(6-(4-(2-hydroxypropan-2-yl)phenyl)pyridin-2-yl)-3-(trifluoromethyl)cyclobutane-1-carboxamide], 64 nM.
`CCOc1ncc(-c2cc(N(CC34CCC(c5noc(C(C)(C)C)n5)(CC3)CC4)C(=O)C34CC(F)(C3)C4)ccn2)cn1` [Example 596, N-((4-(5-(tert-butyl)-1,2,4-oxadiazol-3-yl)bicyclo[2.2.2]octan-1-yl)methyl)-N-(2-(2-ethoxypyrimidin-5-yl)pyridin-4-yl)-3-fluorobicyclo[1.1.1]pentane-1-carboxamide]: the EC50 stood at 321 nM. This EC50 lies about 5-fold higher than the previous one.
As for `CC(C)(C)c1nc(C23CCC(CN(C(=O)C45CC(F)(C4)C5)c4ccnc(-c5cnc(C6CC6)nc5)c4)(CC2)CC3)no1` [Example 597, N-((4-(5-(tert-butyl)-1,2,4-oxadiazol-3-yl)bicyclo[2.2.2]octan-1-yl)methyl)-N-(2-(2-cyclopropylpyrimidin-5-yl)pyridin-4-yl)-3-fluorobicyclo[1.1.1]pentane-1-carboxamide], the figure is 226 nM.
For the molecule `CC(C)(C#N)OC(=O)N(CC12CCC(c3noc(C(C)(C)F)n3)(CC1)CC2)c1cccc(-c2ccc(C(C)(C)O)cc2)c1` [Example 598, 2-cyanopropan-2-yl ((4-(5-(2-fluoropropan-2-yl)-1,2,4-oxadiazol-3-yl)bicyclo[2.2.2]octan-1-yl)methyl)(4′-(2-hydroxypropan-2-yl)-[1,1′-biphenyl]-3-yl) carbamate], a half-maximal effect (EC50) was put at 29 nM.
Consider `CC(C)(O)c1ccc(-c2cccc(N(CC34CCC(c5noc(C(C)(C)F)n5)(CC3)CC4)C(=O)N[C@H]3CC[C@](C)(O)CC3)c2)cc1` [Example 599, 1-((4-(5-(2-fluoropropan-2-yl)-1,2,4-oxadiazol-3-yl)bicyclo[2.2.2]octan-1-yl)methyl)-3-((trans)-4-hydroxy-4-methylcyclohexyl)-1-(4′-(2-hydroxypropan-2-yl)-[1,1′-biphenyl]-3-yl)urea], for which the EC50 is 30 nM.
With `CC(C)OC(=O)NC12CCC(CN(C(=O)C3CC(O)(C(F)(F)F)C3)c3cccc(-c4ccc(C(C)(C)O)cc4)c3)(CC1)CC2` (stereo not drawn) [Example 602, Isopropyl (4-(((cis)-3-hydroxy-N-(4′-(2-hydroxypropan-2-yl)-[1,1′-biphenyl]-3-yl)-3-(trifluoromethyl)cyclobutane-1-carboxamido)methyl)bicyclo[2.2.2]octan-1-yl)carbamate], it took 142 nM to reach a half-maximal effect (EC50).
Consider `O=C(C1CC(O)(C(F)(F)F)C1)N(CC12CCC(NS(=O)(=O)C(F)(F)F)(CC1)CC2)c1cccc(-c2ccc(OC(F)F)cc2)c1` (stereo not drawn) [Example 603, (cis)-N-(4′-(difluoromethoxy)-[1,1′-biphenyl]-3-yl)-3-hydroxy-3-(trifluoromethyl)-N-((4-((trifluoromethyl)sulfonamido)bicyclo[2.2.2]octan-1-yl)methyl)cyclobutane-1-carboxamide], for which the EC50 was determined as 1820 nM.
`CC(C)NC(=O)NC12CCC(CN(C(=O)C3CC(O)(C(F)(F)F)C3)c3cccc(-c4ccc(OC(C)C)cc4)c3)(CC1)CC2` (stereo not drawn) [Example 604, (cis)-3-hydroxy-N-(4′-isopropoxy-[1,1′-biphenyl]-3-yl)-N-((4-(3-isopropylureido)bicyclo[2.2.2]octan-1-yl)methyl)-3-(trifluoromethyl)cyclobutane-1-carboxamide] yielded a concentration for a half-maximal effect (EC50) of 968 nM.
As for `CC(C)(O)c1ccc(-c2ccnc(N(CC34CCC(c5ccc(C(C)(F)F)cn5)(CC3)CC4)C(=O)OC(C)(C)C(F)(F)F)c2)cc1` [Example 605, 1,1,1-trifluoro-2-methylpropan-2-yl((4-(5-(1,1-difluoroethyl)pyridin-2-1)bicyclo[2.2.2]octan-1-yl)methyl)(4-(4-(2-hydroxypropan-2-yl)phenyl)pyridin-2-yl)carbamate], the figure is 52 nM.
